Data reported in ChEMBL document CHEMBL5321275, “Discovery, Optimization, and Evaluation of Novel N-(Benzimidazol-5-yl)-1,3,4-thiadiazol-2-amine Analogues as Potent STAT3 Inhibitors for Cancer Treatment” (J Med Chem, 2023).
One block for each compound: values may come before it.

How the values were obtained:
[1] = test system: MDA-MB-231; assay: Antiproliferative activity against human MDA-MB-231 cells assessed as inhibition of cell growth measured after 96 hrs by MTT assay; format: functional, cell-based; details: MDA-MB-231, 96 h
[2] = Inhibition of IL-6/JAK/STAT3 signalling pathway in HEK-Blue IL-6 cells incubated for 16 hrs by QUANTI-blue assay; format: cell-based; details: Homo sapiens, HEK-Blue IL-6, 16 h
[3] = test system: MDA-MB-231; assay: Antiproliferative activity against human MDA-MB-231 cells assessed as inhibition of cell growth at 10 uM measured after 96 hrs by MTT assay relative to control; format: functional
[4] = test system: DU-145; assay: Antiproliferative activity against human DU-145 cells assessed as inhibition of cell growth measured after 96 hrs by MTT assay; format: functional, cell-based; details: DU-145, 96 h
[5] = test system: DU-145; assay: Antiproliferative activity against human DU-145 cells assessed as inhibition of cell growth at 10 uM measured after 96 hrs by MTT assay relative to control; format: functional
[6] = test system: HEK-Blue IL-6; assay: Inhibition of IL-6/JAK/STAT3 signalling pathway in HEK-Blue IL-6 cells at 10 uM incubated for 16 hrs by QUANTI-blue assay relative to control; format: cell-based; details: Homo sapiens

SMILES: CCCCn1c(-c2ccc(F)cc2)nc2cc(Nc3nnc(-c4ccccc4)s3)c(N3CCN(C)CC3)cc21
- IC50 [1]: > 10 µM
- IC50 [2]: 3.51 µM
- inhibition at 10 µM [3]: -14.4%
- IC50 [4]: > 10 µM
- inhibition at 10 µM [5]: -9.69%
- inhibition [6]: 80.7%

SMILES: CC(C)Cn1c(-c2ccc(F)cc2)nc2cc(Nc3nnc(-c4ccccc4)s3)c(N3CCN(C)CC3)cc21
- IC50 [1]: 8.55 µM
- IC50 [2]: 3.92 µM
- inhibition at 10 µM [3]: 62.2%
- IC50 [4]: > 10 µM
- inhibition at 10 µM [5]: 26.7%
- inhibition [6]: 77.4%

SMILES: CN1CCN(c2cc3c(cc2Nc2nnc(-c4ccccc4)s2)nc(-c2ccc(Cl)cc2)n3C2CC2)CC1
- IC50 [1]: > 10 µM
- IC50 [2]: 2.96 µM
- inhibition at 10 µM [3]: 6.84%
- IC50 [4]: > 10 µM
- inhibition at 10 µM [5]: -4.82%
- inhibition [6]: 75.8%

SMILES: CCCn1c(-c2ccc(F)cc2)nc2cc(Nc3nnc(-c4cccc(C(F)(F)F)c4)s3)c(N3CCN(C)CC3)cc21
- IC50 [1]: 6.63 µM
- IC50 [2]: > 10 µM
- inhibition at 10 µM [3]: 90.1%
- IC50 [4]: 9.73 µM
- inhibition at 10 µM [5]: 55.6%
- inhibition [6]: 5.21%

SMILES: Fc1ccc(-c2nc3cc(Nc4nnc(-c5ccc(C(F)(F)F)cc5)s4)ccc3n2C2CC2)cc1
- IC50 [2]: > 10 µM
- inhibition [6]: 8.71%

SMILES: CN1CCN(c2cc3c(cc2Nc2nnc(-c4ccccc4)s2)nc(-c2ccccc2F)n3C2CC2)CC1
- IC50 [2]: 7.56 µM
- inhibition [6]: 63.3%

SMILES: CN1CCN(c2cc3c(cc2Nc2nnc(-c4ccccc4)s2)nc(-c2ccc(F)cc2)n3C2CCC2)CC1
- IC50 [2]: 6.27 µM
- inhibition [6]: 64.7%

SMILES: CCCn1c(-c2cccc(F)c2)nc2cc(Nc3nnc(-c4ccc(C(F)(F)F)cc4)s3)c(F)cc21
- IC50 [2]: > 10 µM
- inhibition [6]: 54.6%

SMILES: CCCn1c(-c2ccc(F)cc2)nc2cc(Nc3nnc(-c4ccc(C(F)(F)F)cc4)s3)c(N3CCN(C)CC3)cc21
- IC50 [1]: 3.83 µM
- IC50 [2]: 3.28 µM
- inhibition at 10 µM [3]: 93.8%
- IC50 [4]: 6.73 µM
- inhibition at 10 µM [5]: 64.6%
- inhibition [6]: 90.9%

SMILES: CN(C)CCn1c(-c2ccc(F)cc2)nc2cc(Nc3nnc(-c4ccccc4)s3)c(N3CCN(C)CC3)cc21
- IC50 [2]: > 10 µM
- inhibition [6]: 2.11%

SMILES: CCCn1c(-c2cccc(F)c2)nc2cc(Nc3nnc(-c4ccccc4C(F)(F)F)s3)c(F)cc21
- IC50 [2]: > 10 µM
- inhibition [6]: 46.2%

SMILES: CCCCCn1c(-c2ccc(F)cc2)nc2cc(Nc3nnc(-c4ccccc4)s3)c(N3CCN(C)CC3)cc21
- IC50 [1]: > 80 µM
- IC50 [2]: 3.96 µM
- inhibition at 10 µM [3]: -7.99%
- IC50 [4]: > 10 µM
- inhibition at 10 µM [5]: -8.3%
- inhibition [6]: 83.2%

SMILES: CCCn1c(-c2ccc(F)cc2)nc2cc(Nc3nnc(-c4cccc(F)c4)s3)c(N3CCN(C)CC3)cc21
- IC50 [1]: 3.33 µM
- IC50 [2]: 1.96 µM
- inhibition at 10 µM [3]: 94.7%
- IC50 [4]: 4.34 µM
- inhibition at 10 µM [5]: 78.9%
- inhibition [6]: 85.3%

SMILES: Fc1ccc(-c2nc3cc(Nc4nnc(-c5cccc(C(F)(F)F)c5)s4)ccc3n2C2CC2)cc1
- IC50 [2]: > 10 µM
- inhibition [6]: 34.5%

SMILES: CN1CCN(c2cc3c(cc2Nc2nnc(-c4ccccc4)s2)nc(-c2cccnc2)n3C2CC2)CC1
- IC50 [2]: > 10 µM
- inhibition [6]: 25.5%

SMILES: CCCn1c(-c2cccc(F)c2)nc2cc(Nc3nnc(-c4cccc(C(F)(F)F)c4)s3)c(F)cc21
- IC50 [2]: > 10 µM
- inhibition [6]: 20.2%

SMILES: CN1CCN(c2cc3c(cc2Nc2nnc(-c4ccccc4)s2)nc(-c2ccc(F)cc2)n3C2CCCC2)CC1
- IC50 [1]: > 10 µM
- IC50 [2]: 5.28 µM
- inhibition at 10 µM [3]: -5.02%
- IC50 [4]: > 10 µM
- inhibition at 10 µM [5]: -26.6%
- inhibition [6]: 77.5%

SMILES: Fc1ccc(-c2nc3cc(Nc4nnc(-c5ccc(C(F)(F)F)cc5)s4)c(N4CCOCC4)cc3n2C2CC2)cc1
- IC50 [2]: > 10 µM
- inhibition [6]: 0.29%

SMILES: CCCn1c(-c2ccc(F)cc2)nc2cc(Nc3nnc(-c4ccccc4)s3)c(N3CCN(C)CC3)cc21
- IC50 [1]: 3.34 µM
- IC50 [2]: 1.32 µM
- inhibition at 10 µM [3]: 93.4%
- IC50 [4]: 4.68 µM
- inhibition at 10 µM [5]: 80.7%
- inhibition [6]: 105%

SMILES: Fc1ccc(-c2nc3cc(Nc4nnc(-c5ccccc5)s4)c(N4CCN(c5ccccc5)CC4)cc3n2C2CC2)cc1
- IC50 [2]: > 10 µM
- inhibition [6]: 21.3%

SMILES: CN1CCN(c2cc3c(cc2Nc2nnc(-c4ccccc4)s2)nc(-c2cccc(F)c2)n3C2CC2)CC1
- IC50 [2]: 4.51 µM
- inhibition [6]: 56.6%

SMILES: Fc1ccc(-c2nc3cc(Nc4nnc(-c5ccccc5)s4)ccc3n2C2CC2)cc1
- IC50 [2]: 5.79 µM
- inhibition [6]: 66.1%

SMILES: COCCn1c(-c2ccc(F)cc2)nc2cc(Nc3nnc(-c4ccccc4)s3)c(N3CCN(C)CC3)cc21
- IC50 [2]: 6.42 µM
- inhibition [6]: 65.4%

The next lines start with results.

- IC50 [1]: > 10 µM
- IC50 [2]: 1.53 µM
- IC50 [4]: > 10 µM
SMILES: Fc1cc2c(cc1Nc1nnc(-c3cccc(C(F)(F)F)c3)s1)nc(-c1cccc(C(F)(F)F)c1)n2C1CC1
- inhibition at 10 µM [3]: 4.54%
- inhibition at 10 µM [5]: -0.72%
- inhibition [6]: 72.8%

- IC50 [1]: 3.98 µM
- IC50 [2]: 2.23 µM
- IC50 [4]: 5.66 µM
SMILES: CN1CCN(c2cc3c(cc2Nc2nnc(-c4cccc(C(F)(F)F)c4)s2)nc(-c2ccc(F)cc2)n3C2CC2)CC1
- inhibition at 10 µM [3]: 94.1%
- inhibition at 10 µM [5]: 64.6%
- inhibition [6]: 100%

- IC50 [2]: > 10 µM
SMILES: Fc1cc2c(cc1Nc1nnc(-c3cccc(C(F)(F)F)c3)s1)nc(-c1ccccc1)n2C1CC1
- inhibition [6]: 25.6%

- IC50 [2]: > 10 µM
SMILES: Fc1ccc(-c2nc3cc(Nc4nnc(-c5ccc(Cl)c(C(F)(F)F)c5)s4)c(F)cc3n2C2CC2)cc1
- inhibition [6]: 34.2%

- IC50 [2]: > 10 µM
SMILES: CN1CCN(c2cc3c(cc2Nc2nnc(-c4cccnc4)s2)nc(-c2ccc(F)cc2)n3C2CC2)CC1
- inhibition [6]: -0.36%

- IC50 [2]: 3.92 µM
SMILES: Fc1cc2c(cc1Nc1nnc(-c3ccccc3F)s1)nc(-c1ccccc1F)n2C1CC1
- inhibition [6]: 63.6%

- IC50 [1]: > 10 µM
- IC50 [2]: 1.09 µM
- IC50 [4]: > 10 µM
SMILES: COc1cc(-c2nnc(Nc3cc4nc(-c5ccc(F)cc5)n(C5CC5)c4cc3F)s2)cc(OC)c1OC
- inhibition at 10 µM [3]: -11.5%
- inhibition at 10 µM [5]: -10.3%
- inhibition [6]: 83.5%

- IC50 [1]: 0.96 µM
- IC50 [2]: 4.01 µM
- IC50 [4]: 2.17 µM
SMILES: CN1CCN(c2cc3c(cc2Nc2nnc(-c4cccc(C#N)c4)s2)nc(-c2ccc(F)cc2)n3C2CC2)CC1
- inhibition at 10 µM [3]: 92.7%
- inhibition at 10 µM [5]: 85.9%
- inhibition [6]: 83.7%

- IC50 [2]: > 10 µM
SMILES: Fc1cc2c(cc1Nc1nnc(-c3cccc(C(F)(F)F)c3)s1)nc(-c1ccc(C(F)(F)F)cc1)n2C1CC1
- inhibition [6]: 29.6%

- IC50 [1]: > 10 µM
- IC50 [2]: 0.41 µM
- IC50 [4]: > 10 µM
SMILES: Fc1cccc(-c2nc3cc(Nc4nnc(-c5cccc(C(F)(F)F)c5)s4)c(F)cc3n2C2CC2)c1
- inhibition at 10 µM [3]: 5.54%
- inhibition at 10 µM [5]: -7.06%
- inhibition [6]: 90%

- IC50 [2]: > 10 µM
SMILES: Fc1ccc(Oc2cc3c(cc2Nc2nnc(-c4cccc(C(F)(F)F)c4)s2)nc(-c2ccc(F)cc2)n3C2CC2)cc1
- inhibition [6]: 6.34%

- IC50 [1]: 6.47 µM
- IC50 [2]: 3.52 µM
- IC50 [4]: 9.37 µM
SMILES: CN1CCN(c2cc3c(cc2Nc2nnc(-c4cccc(F)c4)s2)nc(-c2ccc(F)cc2)n3C2CC2)CC1
- inhibition at 10 µM [3]: 91.9%
- inhibition at 10 µM [5]: 56.4%
- inhibition [6]: 82.1%

- IC50 [2]: > 10 µM
SMILES: CC(C)(C)c1ccc(-c2nnc(Nc3cc4nc(-c5ccc(F)cc5)n(C5CC5)c4cc3F)s2)cc1
- inhibition [6]: 36.1%

- IC50 [1]: > 10 µM
- IC50 [4]: > 10 µM
SMILES: Fc1ccc(-c2nc3cc(Nc4nnc(-c5cccc(C(F)(F)F)c5)s4)c(F)cc3n2C2CC2)cc1
- inhibition at 10 µM [3]: 8.11%
- inhibition at 10 µM [5]: -3.68%
